Article PMC8496750, “Identification of the organic anion transporting polypeptides responsible for the hepatic uptake of the major metabolite of epyrifenacil, S‐3100‐CA, in mice” (Pharmacology Research & Perspectives, 2021)

Assays:
[1] = ^14C‐plasma, liver, and kidney distribution study with or without OATP inhibitors; type: in vivo, Crl:CD1(ICR) mice; details: for Kidney/plasma ratio of ^14C / Liver/plasma ratio of ^14C / ^14C‐concentration in liver: 2 h; for Liver/plasma ratio of ^14C‐concentration: oral or intraperitoneal co‐administration of DGX
Method: Crl:CD1(ICR) mice at the age of 7 weeks were purchased from Charles River Laboratories Japan, Inc., Hino Breeding Center. The mice at the age of 8 or 9 weeks were dosed after completing a 7‐day quarantine period and an additional 0‐ to 7‐day acclimatization period. All animal experiments were conducted in accordance with the Guidance for the Care and Use of Laboratory Animals in our laboratory, which corresponds to the Guidelines for Proper Conduct of Animal Experiments (Science Council of Japan). Animals were maintained under constant environmental conditions: room temperature, 21−25°C; relative humidity, 55% ±15%; ventilation, 10 air exchanges per hour; and artificial lighting, from 8:00 am to 8:00 pm. The animals were provided with pelleted diet and water ad libitum. […] All animals were euthanized by bleeding from the abdominal artery under anesthesia.
[^14C]Epyrifenacil was isotopically diluted with the unlabeled test compound to adjust the specific activity to 5.00 MBq/mg. After evaporation of the solvent under nitrogen gas flow, labeled material was suspended in 0.5% (w/v) methylcellulose solution at a concentration of 1 mg/5 ml by grinding in a mortar. The suspension was stored frozen until the start of dosing. The radiochemical purity of the dosing suspension was analyzed by radio‐HPLC and was confirmed to be >99%. […] These dosing suspensions were stored in a refrigerator until dosing commenced.
Three mice per sex at 8 weeks old were given a single oral dose of [^14C]epyrifenacil at 1 mg/kg with or without co‐administration of OATP inhibitors. […] At 2 h after administration of [^14C]epyifenacil, the animals were euthanized by whole blood collection from the abdominal aorta under anesthesia with isoflurane. The sampling time point was selected as the time around T max based on the result of the blood ^14C‐concentration study. Then, the liver and kidney were dissected out, and the amount of ^14C was measured. Aliquots of heparinized blood samples were separated into blood cells and plasma by centrifugation at 2000g for 10 min at 4°C. The total weight of the liver and kidney was determined for each animal. Two aliquots of plasma and tissue samples (approximately 0.05–0.1 g) were weighed in a glass vial, and the radioactivity was measured.

[2] = design: method as in PMID 34908893; details: rats; 90‐day; cited from earlier work
[3] = Female, epyrifenacil 1 mg/kg p.o. + Digoxin 100 mg/kg i.p.
[4] = Female, epyrifenacil 1 mg/kg p.o. + Digoxin 200 mg/kg p.o.
[5] = Female, epyrifenacil 1 mg/kg p.o. + Rifampicin 200 mg/kg p.o.
[6] = Female, epyrifenacil 1 mg/kg p.o., no inhibitor
[7] = Female, 2 h after epyrifenacil 1 mg/kg p.o. + Digoxin 100 mg/kg i.p.
[8] = Female, 2 h after epyrifenacil 1 mg/kg p.o. + Digoxin 100 mg/kg i.p., listed as [^14C]Epyrifenacil
[9] = Female, 2 h after epyrifenacil 1 mg/kg p.o. + Digoxin 200 mg/kg p.o.
[10] = Female, 2 h after epyrifenacil 1 mg/kg p.o. + Digoxin 200 mg/kg p.o., listed as [^14C]Epyrifenacil
[11] = Female, 2 h after epyrifenacil 1 mg/kg p.o. + Rifampicin 200 mg/kg p.o.
[12] = Female, 2 h after epyrifenacil 1 mg/kg p.o. + Rifampicin 200 mg/kg p.o., listed as [^14C]Epyrifenacil
[13] = Female, 2 h after epyrifenacil 1 mg/kg p.o., no inhibitor
[14] = Female, 2 h after epyrifenacil 1 mg/kg p.o., no inhibitor, listed as [^14C]Epyrifenacil
[15] = Male, epyrifenacil 1 mg/kg p.o. + Digoxin 100 mg/kg i.p.
[16] = Male, epyrifenacil 1 mg/kg p.o. + Digoxin 200 mg/kg p.o.
[17] = Male, epyrifenacil 1 mg/kg p.o. + Rifampicin 200 mg/kg p.o.
[18] = Male, epyrifenacil 1 mg/kg p.o., no inhibitor
[19] = Male, 2 h after epyrifenacil 1 mg/kg p.o. + Digoxin 100 mg/kg i.p.
[20] = Male, 2 h after epyrifenacil 1 mg/kg p.o. + Digoxin 100 mg/kg i.p., listed as [^14C]Epyrifenacil
[21] = Male, 2 h after epyrifenacil 1 mg/kg p.o. + Digoxin 200 mg/kg p.o.
[22] = Male, 2 h after epyrifenacil 1 mg/kg p.o. + Digoxin 200 mg/kg p.o., listed as [^14C]Epyrifenacil
[23] = Male, 2 h after epyrifenacil 1 mg/kg p.o. + Rifampicin 200 mg/kg p.o.
[24] = Male, 2 h after epyrifenacil 1 mg/kg p.o. + Rifampicin 200 mg/kg p.o., listed as [^14C]Epyrifenacil
[25] = Male, 2 h after epyrifenacil 1 mg/kg p.o., no inhibitor
[26] = Male, 2 h after epyrifenacil 1 mg/kg p.o., no inhibitor, listed as [^14C]Epyrifenacil

## CCOC(=O)COc1ncccc1Oc1cc(-n2c(=O)cc(C(F)(F)F)n(C)c2=O)c(F)cc1Cl [Epyrifenacil, ethyl[(3‐{2‐chloro‐4‐fluoro‐5‐[3‐methyl‐2,6‐dioxo‐4‐(trifluoromethyl)‐3,6‐dihydropyrimidin‐1(2H)‐yl]phenoxy}pyridin‐2‐yl)oxy]acetate]
[1]; [3]
  Kidney/plasma ratio of ^14C: (2.2)
  Liver/plasma ratio of ^14C: (41)
[1]; [4]
  Kidney/plasma ratio of ^14C: (1.6)
  Liver/plasma ratio of ^14C: (43)
[1]; Female, epyrifenacil 1 mg/kg p.o. + Digoxin 200 mg/kg p.o., listed as [^14C]epyrifenacil
  Liver/plasma ratio of ^14C: ca. 43
[1]; [5]
  Kidney/plasma ratio of ^14C: (0.60)
  Liver/plasma ratio of ^14C: (4.0)
[1]; Female, epyrifenacil 1 mg/kg p.o. + Rifampicin 200 mg/kg p.o., listed as [^14C]epyrifenacil
  Liver/plasma ratio of ^14C: ~4
[1]; [6]
  Kidney/plasma ratio of ^14C: (1.3)
  Liver/plasma ratio of ^14C: (35)
[1]; Female, epyrifenacil 1 mg/kg p.o., no inhibitor, listed as [^14C]epyrifenacil
  Liver/plasma ratio of ^14C: ~35
[1]; [7]
  ^14C‐Concentration, Kidney: 0.184 ± 0.0360 μg eq. of epyrifenacil/g tissue
  ^14C‐Concentration, Liver: 3.390 ± 1.9870 μg eq. of epyrifenacil/g tissue
  ^14C‐Concentration, Plasma: 0.082 ± 0.0574 μg eq. of epyrifenacil/g tissue
[1]; [8]
  ^14C‐Concentration, Kidney: 0.184 μg eq. of epyrifenacil/g tissue
  ^14C‐Concentration, Liver: 3.390 μg eq. of epyrifenacil/g tissue
  ^14C‐Concentration, Plasma: 0.082 μg eq. of epyrifenacil/g tissue
[1]; [9]
  ^14C‐Concentration, Kidney: 0.086 ± 0.0096 μg eq. of epyrifenacil/g tissue
  ^14C‐Concentration, Liver: 2.344 ± 0.4524 μg eq. of epyrifenacil/g tissue
  ^14C‐Concentration, Plasma: 0.054 ± 0.0118 μg eq. of epyrifenacil/g tissue
[1]; [10]
  ^14C‐Concentration, Kidney: 0.086 μg eq. of epyrifenacil/g tissue
  ^14C‐Concentration, Liver: 2.344 μg eq. of epyrifenacil/g tissue
  ^14C‐Concentration, Plasma: 0.054 μg eq. of epyrifenacil/g tissue
[1]; [11]
  ^14C‐Concentration, Kidney: 0.130 ± 0.0548 μg eq. of epyrifenacil/g tissue
  ^14C‐Concentration, Liver: 0.880 ± 0.4160 μg eq. of epyrifenacil/g tissue
  ^14C‐Concentration, Plasma: 0.217 ± 0.1551 μg eq. of epyrifenacil/g tissue
[1]; [12]
  ^14C‐Concentration, Kidney: 0.130 μg eq. of epyrifenacil/g tissue
  ^14C‐Concentration, Liver: 0.880 μg eq. of epyrifenacil/g tissue
  ^14C‐Concentration, Plasma: 0.217 μg eq. of epyrifenacil/g tissue
[1]; [13]
  ^14C‐Concentration, Kidney: 0.190 ± 0.0511 μg eq. of epyrifenacil/g tissue
  ^14C‐Concentration, Liver: 5.136 ± 1.1225 μg eq. of epyrifenacil/g tissue
  ^14C‐Concentration, Plasma: 0.147 ± 0.0642 μg eq. of epyrifenacil/g tissue
[1]; [14]
  ^14C‐Concentration, Kidney: 0.190 μg eq. of epyrifenacil/g tissue
  ^14C‐Concentration, Liver: 5.136 μg eq. of epyrifenacil/g tissue
  ^14C‐Concentration, Plasma: 0.147 μg eq. of epyrifenacil/g tissue
[1]; [15]
  Kidney/plasma ratio of ^14C: (1.7)
  Liver/plasma ratio of ^14C: (67)
[1]; [16]
  Kidney/plasma ratio of ^14C: (2.6)
  Liver/plasma ratio of ^14C: (97)
[1]; Male, epyrifenacil 1 mg/kg p.o. + Digoxin 200 mg/kg p.o., listed as [^14C]epyrifenacil
  Liver/plasma ratio of ^14C: ca. 97
[1]; [17]
  Kidney/plasma ratio of ^14C: (0.96)
  Liver/plasma ratio of ^14C: (11)
[1]; [18]
  Kidney/plasma ratio of ^14C: (1.3)
  Liver/plasma ratio of ^14C: (73)
[1]; Male, epyrifenacil 1 mg/kg p.o., no inhibitor, listed as [^14C]epyrifenacil
  Liver/plasma ratio of ^14C: ca. 73
[1]; [19]
  ^14C‐Concentration, Kidney: 0.140 ± 0.0527 μg eq. of epyrifenacil/g tissue
  ^14C‐Concentration, Liver: 5.527 ± 1.3453 μg eq. of epyrifenacil/g tissue
  ^14C‐Concentration, Plasma: 0.083 ± 0.0027 μg eq. of epyrifenacil/g tissue
[1]; [20]
  ^14C‐Concentration, Kidney: 0.140 μg eq. of epyrifenacil/g tissue
  ^14C‐Concentration, Liver: 5.527 μg eq. of epyrifenacil/g tissue
  ^14C‐Concentration, Plasma: 0.083 μg eq. of epyrifenacil/g tissue
[1]; [21]
  ^14C‐Concentration, Kidney: 0.044 ± 0.0051 μg eq. of epyrifenacil/g tissue
  ^14C‐Concentration, Liver: 1.647 ± 0.7217 μg eq. of epyrifenacil/g tissue
  ^14C‐Concentration, Plasma: 0.017 ± 0.0064 μg eq. of epyrifenacil/g tissue
[1]; [22]
  ^14C‐Concentration, Kidney: 0.044 μg eq. of epyrifenacil/g tissue
  ^14C‐Concentration, Liver: 1.647 μg eq. of epyrifenacil/g tissue
  ^14C‐Concentration, Plasma: 0.017 μg eq. of epyrifenacil/g tissue
[1]; [23]
  ^14C‐Concentration, Kidney: 0.144 ± 0.0794 μg eq. of epyrifenacil/g tissue
  ^14C‐Concentration, Liver: 1.671 ± 1.2478 μg eq. of epyrifenacil/g tissue
  ^14C‐Concentration, Plasma: 0.151 ± 0.0791 μg eq. of epyrifenacil/g tissue
[1]; [24]
  ^14C‐Concentration, Kidney: 0.144 μg eq. of epyrifenacil/g tissue
  ^14C‐Concentration, Liver: 1.671 μg eq. of epyrifenacil/g tissue
  ^14C‐Concentration, Plasma: 0.151 μg eq. of epyrifenacil/g tissue
[1]; [25]
  ^14C‐Concentration, Kidney: 0.124 ± 0.0180 μg eq. of epyrifenacil/g tissue
  ^14C‐Concentration, Liver: 6.763 ± 0.1014 μg eq. of epyrifenacil/g tissue
  ^14C‐Concentration, Plasma: 0.092 ± 0.0066 μg eq. of epyrifenacil/g tissue
[1]; [26]
  ^14C‐Concentration, Kidney: 0.124 μg eq. of epyrifenacil/g tissue
  ^14C‐Concentration, Liver: 6.763 μg eq. of epyrifenacil/g tissue
  ^14C‐Concentration, Plasma: 0.092 μg eq. of epyrifenacil/g tissue
[1]; female
  Liver/plasma ratio of ^14C‐concentration: 41–43
[1]; females, co‐administration of RIF 200 mg/kg oral
  ^14C‐concentration in liver: 0.880 ppm
[1]; females, epyrifenacil 1 mg/kg p.o., no inhibitor
  ^14C‐concentration in liver: 5.136 ± 1.1225 ppm
[1]; male
  Liver/plasma ratio of ^14C‐concentration: 67–97
[1]; males, co‐administration of RIF 200 mg/kg oral
  ^14C‐concentration in liver: 1.671 ppm
[1]; males, epyrifenacil 1 mg/kg p.o., no inhibitor, ppm = µg eq. of epyrifenacil/g
  ^14C‐concentration in liver: 6.763 ± 0.1014 ppm
[2]
  Hepatocyte injury: produced hepatocyte injury
